Assay results reported in patent US9340590B2 (priority 2011, dated 2016).
Like-named read-outs stand apart in the source and are kept apart here. Positions of bridges follow the written chain, without caps; N, C: chain ends. Non-standard residues stand in square brackets, D forms with d. Residues, ends and D or L forms follow the SMILES beside them. Nva = CCC[C@H](N)C(=O)O; Abu = CC[C@H](N)C(=O)O

Key:
Assay in all cases: cell-based
hNav1.3 = hNav1.3 (Homo sapiens, UniProt Q9NY46); settings: for IC50: IonWorks Quattro, read-out: IWQ Use Nav1.3
hNav1.7 = hNav1.7 (Homo sapiens, UniProt Q15858); format: cell-based; settings: for IC50: IonWorks Quattro, read-out: IWQ Use Nav1.7
hNav1.5 = hNav1.5 (Homo sapiens, UniProt Q14524); settings: IonWorks Quattro, read-out: IWQ Use Nav1.5
hNav1.4 = hNav1.4 (Homo sapiens, UniProt P35499); settings: IonWorks Quattro, read-out: IWQ Use Nav1.4
[1] = clamped to −110 mV, depolarized to −10 mV, 5 min after compound, n=2
[2] = ratio of IWQ Use values, Nav1.7 over Nav1.3

Chain of hNav1.5 (Q14524 whole entry, looked up): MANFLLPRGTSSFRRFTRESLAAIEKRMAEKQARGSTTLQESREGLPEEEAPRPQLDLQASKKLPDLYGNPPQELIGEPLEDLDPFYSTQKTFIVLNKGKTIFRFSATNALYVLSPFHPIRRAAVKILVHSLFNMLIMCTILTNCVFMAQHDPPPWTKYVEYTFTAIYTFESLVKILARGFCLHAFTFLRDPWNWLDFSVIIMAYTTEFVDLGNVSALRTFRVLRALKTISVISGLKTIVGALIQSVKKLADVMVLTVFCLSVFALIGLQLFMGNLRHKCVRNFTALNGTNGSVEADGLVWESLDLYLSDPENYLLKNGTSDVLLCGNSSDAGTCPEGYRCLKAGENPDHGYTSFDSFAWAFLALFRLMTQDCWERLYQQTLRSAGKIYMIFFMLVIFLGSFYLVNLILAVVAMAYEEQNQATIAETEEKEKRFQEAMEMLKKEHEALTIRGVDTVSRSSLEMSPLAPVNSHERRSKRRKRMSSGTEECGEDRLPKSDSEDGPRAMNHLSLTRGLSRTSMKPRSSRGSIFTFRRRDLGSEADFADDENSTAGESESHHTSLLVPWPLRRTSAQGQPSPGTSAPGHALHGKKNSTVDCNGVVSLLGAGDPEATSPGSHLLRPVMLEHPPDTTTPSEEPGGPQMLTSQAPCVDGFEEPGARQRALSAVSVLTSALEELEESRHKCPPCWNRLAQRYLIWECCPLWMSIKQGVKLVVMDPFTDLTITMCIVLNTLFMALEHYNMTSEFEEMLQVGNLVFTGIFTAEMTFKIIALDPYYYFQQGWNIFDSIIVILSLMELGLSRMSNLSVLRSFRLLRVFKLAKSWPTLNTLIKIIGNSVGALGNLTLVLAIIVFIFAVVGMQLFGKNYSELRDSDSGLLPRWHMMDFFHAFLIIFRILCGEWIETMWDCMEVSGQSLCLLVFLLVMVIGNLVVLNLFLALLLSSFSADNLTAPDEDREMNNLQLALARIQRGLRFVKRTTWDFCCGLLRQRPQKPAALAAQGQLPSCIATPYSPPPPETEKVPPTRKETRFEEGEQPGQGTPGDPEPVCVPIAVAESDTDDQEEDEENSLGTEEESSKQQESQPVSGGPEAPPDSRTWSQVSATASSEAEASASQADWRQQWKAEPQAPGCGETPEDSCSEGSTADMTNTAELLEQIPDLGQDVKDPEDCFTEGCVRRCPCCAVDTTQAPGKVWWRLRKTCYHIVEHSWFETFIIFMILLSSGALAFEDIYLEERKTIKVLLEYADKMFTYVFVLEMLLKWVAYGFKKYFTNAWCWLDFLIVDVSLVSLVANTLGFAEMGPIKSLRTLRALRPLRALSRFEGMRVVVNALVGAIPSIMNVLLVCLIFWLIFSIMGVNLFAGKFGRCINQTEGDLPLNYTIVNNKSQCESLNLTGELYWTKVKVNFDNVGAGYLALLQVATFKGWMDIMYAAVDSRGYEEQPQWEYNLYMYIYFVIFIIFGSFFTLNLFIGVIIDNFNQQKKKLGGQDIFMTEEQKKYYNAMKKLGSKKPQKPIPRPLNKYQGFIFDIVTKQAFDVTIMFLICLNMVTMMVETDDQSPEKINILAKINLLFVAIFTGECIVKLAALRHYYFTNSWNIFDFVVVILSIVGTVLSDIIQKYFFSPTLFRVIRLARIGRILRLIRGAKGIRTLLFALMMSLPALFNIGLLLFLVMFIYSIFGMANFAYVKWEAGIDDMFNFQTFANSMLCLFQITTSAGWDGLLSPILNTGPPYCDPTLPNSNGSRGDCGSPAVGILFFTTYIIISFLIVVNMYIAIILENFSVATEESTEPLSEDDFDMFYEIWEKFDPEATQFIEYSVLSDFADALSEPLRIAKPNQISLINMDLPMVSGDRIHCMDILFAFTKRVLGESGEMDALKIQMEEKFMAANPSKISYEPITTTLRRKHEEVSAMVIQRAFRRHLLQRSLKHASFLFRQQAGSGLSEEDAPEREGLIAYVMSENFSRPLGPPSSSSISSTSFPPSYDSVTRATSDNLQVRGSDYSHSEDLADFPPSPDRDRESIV
Chain of hNav1.7 (Q15858 whole entry, looked up): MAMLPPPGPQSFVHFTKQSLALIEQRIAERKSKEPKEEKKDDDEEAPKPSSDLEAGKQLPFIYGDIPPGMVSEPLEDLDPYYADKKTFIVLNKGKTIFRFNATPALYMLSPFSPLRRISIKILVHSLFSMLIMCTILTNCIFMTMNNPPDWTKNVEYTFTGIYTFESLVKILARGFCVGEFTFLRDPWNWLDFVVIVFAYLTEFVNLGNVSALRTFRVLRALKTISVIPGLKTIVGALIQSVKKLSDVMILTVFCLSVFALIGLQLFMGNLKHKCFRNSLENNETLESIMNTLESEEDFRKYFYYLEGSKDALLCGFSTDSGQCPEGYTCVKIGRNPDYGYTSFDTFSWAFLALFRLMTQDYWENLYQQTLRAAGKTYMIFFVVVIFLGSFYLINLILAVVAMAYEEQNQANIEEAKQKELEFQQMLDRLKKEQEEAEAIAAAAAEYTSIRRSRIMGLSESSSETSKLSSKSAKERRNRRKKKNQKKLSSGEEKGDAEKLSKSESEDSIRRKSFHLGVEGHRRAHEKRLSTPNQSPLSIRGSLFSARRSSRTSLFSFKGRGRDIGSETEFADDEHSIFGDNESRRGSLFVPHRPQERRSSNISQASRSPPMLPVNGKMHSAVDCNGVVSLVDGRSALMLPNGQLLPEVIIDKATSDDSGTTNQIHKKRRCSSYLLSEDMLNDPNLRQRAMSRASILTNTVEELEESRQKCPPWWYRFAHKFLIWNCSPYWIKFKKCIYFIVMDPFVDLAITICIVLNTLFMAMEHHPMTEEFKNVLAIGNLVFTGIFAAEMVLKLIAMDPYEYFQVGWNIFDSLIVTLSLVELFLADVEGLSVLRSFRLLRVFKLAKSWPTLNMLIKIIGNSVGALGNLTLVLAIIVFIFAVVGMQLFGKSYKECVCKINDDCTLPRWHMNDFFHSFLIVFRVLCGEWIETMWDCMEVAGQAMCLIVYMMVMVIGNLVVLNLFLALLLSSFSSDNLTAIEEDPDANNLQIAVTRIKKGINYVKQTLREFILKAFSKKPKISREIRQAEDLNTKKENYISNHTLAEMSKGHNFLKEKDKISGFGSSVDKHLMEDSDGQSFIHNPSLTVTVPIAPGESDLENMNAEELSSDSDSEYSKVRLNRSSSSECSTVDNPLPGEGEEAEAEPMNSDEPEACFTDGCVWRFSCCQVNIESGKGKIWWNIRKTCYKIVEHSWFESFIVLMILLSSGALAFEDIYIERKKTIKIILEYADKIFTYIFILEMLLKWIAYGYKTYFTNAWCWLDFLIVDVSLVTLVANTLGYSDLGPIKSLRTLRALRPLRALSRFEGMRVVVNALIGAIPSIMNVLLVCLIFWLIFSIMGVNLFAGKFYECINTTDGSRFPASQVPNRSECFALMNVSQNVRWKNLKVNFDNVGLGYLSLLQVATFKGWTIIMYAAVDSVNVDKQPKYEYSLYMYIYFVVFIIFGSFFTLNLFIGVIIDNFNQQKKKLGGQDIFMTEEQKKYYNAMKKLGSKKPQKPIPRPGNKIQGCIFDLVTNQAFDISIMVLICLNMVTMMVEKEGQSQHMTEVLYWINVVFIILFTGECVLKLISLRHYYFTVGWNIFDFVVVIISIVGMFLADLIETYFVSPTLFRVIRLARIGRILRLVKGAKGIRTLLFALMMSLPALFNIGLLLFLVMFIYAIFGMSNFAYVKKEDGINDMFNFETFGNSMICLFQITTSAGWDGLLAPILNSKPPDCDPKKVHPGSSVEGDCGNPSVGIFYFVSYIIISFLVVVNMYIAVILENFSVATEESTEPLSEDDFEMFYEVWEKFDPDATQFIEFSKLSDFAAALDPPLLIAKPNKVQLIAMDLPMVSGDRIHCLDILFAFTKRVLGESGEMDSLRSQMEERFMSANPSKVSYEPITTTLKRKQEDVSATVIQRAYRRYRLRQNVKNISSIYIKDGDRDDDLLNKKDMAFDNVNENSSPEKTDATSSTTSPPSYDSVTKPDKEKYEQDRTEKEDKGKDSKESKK

CC[C@@H]1NC(=O)[C@@H]2CSSC[C@@H](C(=O)N[C@@H](CCCCN)C(=O)N[C@@H](Cc3ccc(O)cc3)C(=O)N[C@H](C(=O)N[C@@H](Cc3ccccc3)C(N)=O)C(C)C)NC(=O)[C@H](Cc3c[nH]c4ccccc34)NC(=O)[C@H](CCCCN)NC(=O)[C@H](Cc3c[nH]cn3)NC(=O)[C@H]([C@@H](C)O)NC(=O)[C@H](CCCNC(=N)N)NC(=O)[C@H](CO)NC(=O)[C@H](CSSC[C@H](NC(=O)[C@H](CCCCN)NC(=O)[C@H](CCCNC(=N)N)NC(=O)[C@H](CCSC)NC(=O)[C@H](C)NC(=O)CNC(=O)[C@H](CC(C)C)NC(=O)[C@H](CC)NC(=O)[C@@H](N)CC(=O)O)C(=O)N[C@@H](CC(=O)O)C(=O)N3CCC[C@H]3C(=O)N[C@@H](CC(=O)O)C(=O)N[C@@H](CC(N)=O)C(=O)N[C@@H](CC(=O)O)C(=O)N[C@@H](CCCCN)C(=O)N2)NC(=O)[C@H](C(C)C)NC(=O)[C@H](CC(C)C)NC(=O)[C@H](CC(N)=O)NC(=O)[C@@H]2CCCN2C(=O)[C@H](CCCNC(=N)N)NC1=O [compound 716] (H-D[Abu]LGAMRKCDPDNDKC[Abu]RPNLVCSRTHKWCKYVF-NH2; disulfide 9-23, 16-30)
IC50 (hNav1.3; use-dependent block, hNav1.3): > 5 µM
IC50 (hNav1.7; use-dependent block, hNav1.7): 3.7 µM
IC50 (hNav1.5; use-dependent block, hNav1.5): 49 µM
IC50 (hNav1.4; use-dependent block, hNav1.4): > 50 µM

CC(C)C[C@@H]1NC(=O)[C@@H](NC(=O)[C@@H](N)CC(=O)O)CSSC[C@@H]2NC(=O)[C@@H]3CSSC[C@@H](C(=O)N[C@@H](CCCCN)C(=O)N[C@@H](Cc4ccc(O)cc4)C(=O)N[C@@H](CCCCN)C(=O)N[C@@H](CC(C)C)C(=O)N[C@@H](Cc4c[nH]c5ccccc45)C(=O)N[C@@H](CCCCN)C(=O)O)NC(=O)[C@H](Cc4c[nH]c5ccccc45)NC(=O)[C@H](CCCCN)NC(=O)[C@H](CC(=O)O)NC(=O)[C@H](CCCNC(=N)N)NC(=O)[C@H](CCCNC(=N)N)NC(=O)[C@H](CC(N)=O)NC(=O)[C@H](CSSC[C@H](NC(=O)CNC(=O)[C@H](CCCCN)NC(=O)[C@H](Cc4ccccc4)NC(=O)[C@H](Cc4c[nH]c5ccccc45)NC(=O)CNC1=O)C(=O)N[C@@H](CC(=O)O)C(=O)N1CCC[C@H]1C(=O)N[C@@H](CC(=O)O)C(=O)N[C@@H](CC(N)=O)C(=O)N[C@@H](CC(=O)O)C(=O)N[C@@H](CCCCN)C(=O)N3)NC(=O)[C@H](CCCCN)NC(=O)[C@H](Cc1ccc(O)cc1)NC(=O)[C@H](CC(N)=O)NC(=O)[C@H](CCC(=O)O)NC2=O [SEQ ID NO: 473] (H-DCLGWFKGCDPDNDKCCENYKCNRRDKWCKYKLWK-OH; disulfide 2-17, 9-22, 16-29)
IC50 (hNav1.3; [1]): 3.5 µM
IC50 (hNav1.7; [1]): 10.4 µM
IC50 (hNav1.5; [1]): 7.6 µM
IC50 (hNav1.4; [1]): 10 µM

CC(C)C[C@H](NC(=O)[C@H](CCCCN)NC(=O)[C@H](Cc1ccc(O)cc1)NC(=O)[C@H](CCCCN)NC(=O)[C@@H]1CSSC[C@@H]2NC(=O)[C@H](CCCCN)NC(=O)[C@H](CC(=O)O)NC(=O)[C@H](CC(N)=O)NC(=O)[C@H](CC(=O)O)NC(=O)[C@@H]3CCCN3C(=O)[C@H](CC(=O)O)NC(=O)[C@@H]3CSSC[C@H](NC(=O)[C@H](CCCCN)NC(=O)[C@H](Cc4ccc(O)cc4)NC(=O)[C@H](CC(N)=O)NC(=O)[C@H](CCC(=O)O)NC(=O)[C@H](CSSC[C@H](NC(=O)[C@@H](N)CC(=O)O)C(=O)N[C@@H](CC(C)C)C(=O)NCC(=O)N[C@@H](Cc4c[nH]c5ccccc45)C(=O)N[C@@H](Cc4ccccc4)C(=O)N[C@@H](CCCCN)C(=O)NCC(=O)N3)NC2=O)C(=O)N[C@@H](CC(N)=O)C(=O)N[C@@H](CCCNC(=N)N)C(=O)N[C@@H](CCCNC(=N)N)C(=O)N[C@@H](CCC(=O)O)C(=O)N[C@@H](CCC(N)=O)C(=O)N[C@@H](Cc2c[nH]c3ccccc23)C(=O)N1)C(N)=O [SEQ ID NO: 469] (H-DCLGWFKGCDPDNDKCCENYKCNRREQWCKYKL-NH2; disulfide 2-17, 9-22, 16-29)
IC50 (hNav1.3; [1]): 4.92 µM
IC50 (hNav1.7; [1]): 9.25 µM
IC50 (hNav1.5; [1]): 10.4 µM
IC50 (hNav1.4; [1]): 11 µM

CC(C)C[C@@H]1NC(=O)[C@@H](NC(=O)[C@@H](N)CC(=O)O)CSSC[C@@H]2NC(=O)[C@@H]3CSSC[C@@H](C(=O)N[C@@H](CCCCN)C(=O)N[C@@H](Cc4ccc(O)cc4)C(=O)N[C@@H](CCCCN)C(=O)N[C@@H](CC(C)C)C(=O)N[C@@H](Cc4c[nH]c5ccccc45)C(=O)N[C@@H](CCCCN)C(=O)O)NC(=O)[C@H](Cc4c[nH]c5ccccc45)NC(=O)[C@H](CCCCN)NC(=O)[C@H](CC(=O)O)NC(=O)[C@H](CCCNC(=N)N)NC(=O)[C@H](CCCNC(=N)N)NC(=O)[C@H](CC(N)=O)NC(=O)[C@H](CSSC[C@H](NC(=O)CNC(=O)[C@H](CCCCN)NC(=O)[C@H](Cc4ccccc4)NC(=O)[C@H](Cc4c[nH]c5ccccc45)NC(=O)CNC1=O)C(=O)N[C@@H](CC(=O)O)C(=O)N1CCC[C@H]1C(=O)N[C@@H](CC(=O)O)C(=O)N[C@@H](CC(N)=O)C(=O)N[C@@H](CC(=O)O)C(=O)N[C@@H](CCCCN)C(=O)N3)NC(=O)[C@H](CCCCN)NC(=O)[C@H](Cc1ccc(O)cc1)NC(=O)CNC(=O)[C@H](CCC(=O)O)NC2=O [compound 471] (H-DCLGWFKGCDPDNDKCCEGYKCNRRDKWCKYKLWK-OH; disulfide 2-17, 9-22, 16-29)
IC50 (hNav1.3; use-dependent block, hNav1.3): 1.7 µM
Nav1.4/Nav1.3 (hNav1.3; ratio of IWQ Use values, Nav1.4 over Nav1.3): 10.0
Nav1.7/Nav1.3 (hNav1.3; [2]): 5.5
IC50 (hNav1.7; use-dependent block, hNav1.7): 9.6 µM
Nav1.4/Nav1.7 (hNav1.7; ratio of IWQ Use values, Nav1.4 over Nav1.7): 1.8
IC50 (hNav1.5; use-dependent block, hNav1.5): 14.6 µM
IC50 (hNav1.4; use-dependent block, hNav1.4): 17.4 µM

CC[C@@H]1NC(=O)[C@@H]2CSSC[C@@H](C(=O)N[C@@H](CCCCN)C(=O)N[C@@H](Cc3ccc(O)cc3)C(=O)N[C@H](C(=O)N[C@@H](Cc3ccccc3)C(N)=O)C(C)C)NC(=O)[C@H](Cc3c[nH]c4ccccc34)NC(=O)[C@H](CCC(=O)O)NC(=O)[C@H](Cc3c[nH]cn3)NC(=O)[C@H]([C@@H](C)O)NC(=O)[C@H](CCCNC(=N)N)NC(=O)[C@H](CO)NC(=O)[C@H](CSSC[C@H](NC(=O)[C@H](CCCCN)NC(=O)[C@H](CCCNC(=N)N)NC(=O)[C@H](CC(C)C)NC(=O)[C@@H](NC(=O)CNC(=O)[C@H](CC(C)C)NC(=O)[C@H](CC)NC(=O)[C@@H](N)CC(=O)O)C(C)C)C(=O)N[C@@H]([C@@H](C)CC)C(=O)N3CCC[C@H]3C(=O)N[C@@H](CC(=O)O)C(=O)N[C@@H](CC(N)=O)C(=O)N[C@@H](CC(=O)O)C(=O)N[C@@H](CCCCN)C(=O)N2)NC(=O)[C@H](C(C)C)NC(=O)[C@H](CC(C)C)NC(=O)[C@H](CC(N)=O)NC(=O)[C@@H]2CCCN2C(=O)[C@H](CCCNC(=N)N)NC1=O [compound 720] (H-D[Abu]LGVLRKCIPDNDKC[Abu]RPNLVCSRTHEWCKYVF-NH2; disulfide 9-23, 16-30)
IC50 (hNav1.3; use-dependent block, hNav1.3): > 5 µM
IC50 (hNav1.7; use-dependent block, hNav1.7): > 5 µM
IC50 (hNav1.5; use-dependent block, hNav1.5): 33 µM
IC50 (hNav1.4; use-dependent block, hNav1.4): > 50 µM

CC[C@H](C)[C@@H]1NC(=O)[C@@H]2CSSC[C@@H]3NC(=O)[C@H](C(C)C)NC(=O)[C@H](CC(C)C)NC(=O)[C@H](CC(N)=O)NC(=O)[C@@H]4CCCN4C(=O)[C@H](CCCNC(=N)N)NC(=O)[C@H](CSSC[C@H](NC(=O)[C@H](CC(=O)O)NC(=O)[C@H](CO)NC(=O)CN)C(=O)N[C@@H](CC(C)C)C(=O)NCC(=O)N[C@@H](C)C(=O)N[C@@H](CC(C)C)C(=O)N[C@@H](CCCNC(=N)N)C(=O)N[C@@H](CCCCN)C(=O)N2)NC(=O)[C@H](CSSC[C@@H](C(=O)N[C@@H](CCCCN)C(=O)N[C@@H](Cc2ccc(O)cc2)C(=O)N[C@H](C(=O)N[C@@H](Cc2ccccc2)C(=O)O)C(C)C)NC(=O)[C@H](Cc2c[nH]c4ccccc24)NC(=O)[C@H](CCCNC(=N)N)NC(=O)[C@H](Cc2c[nH]cn2)NC(=O)[C@H]([C@@H](C)O)NC(=O)[C@H](CCCNC(=N)N)NC(=O)[C@H](CO)NC3=O)NC(=O)[C@H](CCCCN)NC(=O)[C@H](CC(=O)O)NC(=O)[C@H](CC(N)=O)NC(=O)[C@H](CC(=O)O)NC(=O)[C@@H]2CCCN2C1=O [compound 822] (H-GSDCLGALRKCIPDNDKCCRPNLVCSRTHRWCKYVF-OH; disulfide 4-19, 11-25, 18-32)
IC50 (hNav1.3; use-dependent block, hNav1.3): 3.7 µM
IC50 (hNav1.7; use-dependent block, hNav1.7): 3.7 µM
Nav1.7/Nav1.3 (hNav1.7; [2]): 1.0
IC50 (hNav1.5; use-dependent block, hNav1.5): > 5 µM
IC50 (hNav1.4; use-dependent block, hNav1.4): > 5 µM

CCC[C@H](NC(=O)CNC(=O)[C@H](CC(C)C)NC(=O)[C@H](CC)NC(=O)[C@@H](N)CC(=O)O)C(=O)N[C@@H](CC(C)C)C(=O)N[C@@H](CCCNC(=N)N)C(=O)N[C@@H](CCCCN)C(=O)N[C@H]1CSSC[C@@H]2NC(=O)[C@H](C(C)C)NC(=O)[C@H](CC(C)C)NC(=O)[C@H](CC(N)=O)NC(=O)[C@@H]3CCCN3C(=O)[C@H](CCCNC(=N)N)NC(=O)[C@H](CC)NC(=O)[C@H](CSSC[C@@H](C(=O)N[C@@H](CCCCN)C(=O)N[C@@H](Cc3ccc(O)cc3)C(=O)N[C@H](C(=O)N[C@@H](Cc3ccccc3)C(N)=O)C(C)C)NC(=O)[C@H](Cc3c[nH]c4ccccc34)NC(=O)[C@H](CCC(=O)O)NC(=O)[C@H](Cc3c[nH]cn3)NC(=O)[C@H]([C@@H](C)O)NC(=O)[C@H](CCCNC(=N)N)NC(=O)[C@H](CO)NC2=O)NC(=O)[C@H](CCCCN)NC(=O)[C@H](CC(=O)O)NC(=O)[C@H](CC(N)=O)NC(=O)[C@H](CC(=O)O)NC(=O)[C@@H]2CCCN2C(=O)[C@H]([C@@H](C)CC)NC1=O [compound 717] (H-D[Abu]LG[Nva]LRKCIPDNDKC[Abu]RPNLVCSRTHEWCKYVF-NH2; disulfide 9-23, 16-30)
IC50 (hNav1.3; use-dependent block, hNav1.3): > 5 µM
IC50 (hNav1.7; use-dependent block, hNav1.7): > 5 µM
IC50 (hNav1.5; use-dependent block, hNav1.5): > 50 µM
IC50 (hNav1.4; use-dependent block, hNav1.4): > 50 µM
